# Experimental data as given in patent publication US20090062369A1, “USE OF SECRETORY PHOSPHOLIPASE A2 (SPLA2) INHIBITORS TO DECREASE SPLA2 LEVELS” (priority 2007, published 2009).
# Test system: serum sPLA2
# Experiment: Effect of twice-a-day oral A-002 on serum sPLA2 levels in subjects with stable coronary artery disease (Example 6)
# Assay type: in vivo, human
# Protocol: The protocol for preparing standard curve, test, and quality control samples for use in the assay disclosed herein is set forth in Example 5. Samples are prepared according to this protocol, then loaded in duplicate onto a plate (Cayman catalog no. 485002 or equivalent) that has been pre-coated with a monoclonal sPLA2 antibody (“capture antibody”) that specifically binds sPLA2. In certain embodiments, the capture antibody may interact with a specific form of sPLA2, such as for example sPLA2 type IIA.
# sPLA2 acetylcholinesterase:Fab′ conjugate (AChE:Fab′) (“conjugate”) (Cayman catalog no. 485000 or equivalent) is reconstituted in EIA buffer (Cayman catalog no. 400060 or equivalent). Cayman EIA buffer is 1M phosphate, pH 7.0, 1% BSA, 4M NaCl, 10 mM EDTA, and 0.1% sodium azide. Reconstituted conjugate is added to each well of the plate. The conjugate binds a different sPLA2 epitope than the capture antibody, allowing the capture antibody and the conjugate to form a “sandwich” that is immobilized on the plate. Excess reagents are washed away, and the plate is covered and incubated overnight at 2-8° C.
# Prior to development, the wells are washed five to six times with wash buffer (Cayman catalog no. 400062 or equivalent). To develop the plate, Ellman's Reagent (Cayman catalog no. 400050 or equivalent) is reconstituted in water and added to each well according to manufacturer instructions. The reconstituted Ellman's Reagent must be used the same day it is prepared because it is unstable. Ellman's Reagent contains an AChE substrate. Specifically, Ellman's Reagent contains acetylthiocholine and 5,5′-dithio-bis-(2-nitrobenzoic acid). Hydrolysis of acetylthiocholine by acetylcholinesterase produces thiocholine, which reacts with 5,5′-dithio-bis-(2-nitrobenzoic acid) to produce 5-thio-2-nitrobenzoic acid. 5-thio-2-nitrobenzoic acid has a strong absorbance at 412 nm. The intensity of absorbance at this wavelength is directly proportional to the concentration of bound conjugate, which is in turn is directly proportional to the concentration of sPLA2 present (Absorbance a [AChE:Fab′ conjugate] α [sPLA2]). During the development step, the plate is shaken, preferably in the dark. In certain embodiments the development time for the assay is 0.5 to 3 hours, preferably 1 to 1.5 hours. At the end of the development period, the high sPLA2 standards should have greater yellow color development than the zero standards. Absorbance of each well is measured at 400-420 nm using a micro-well plate reader. In certain embodiments, absorbance is measured at about 405 nm.
# Absorbance readings for duplicate wells are averaged, and the relative standard deviation and % CV are calculated. Standard curve data are used to generate a four parameter curve, and quality control and test samples are measured against the appropriate standard curve (i.e., the standard curve with the same serum content). In order for a test to be considered valid, variation between duplicate wells should be no more than about 25%, and negative controls (blanks) for each standard curve should have a mean absorbance of less than about 0.3.
# The method disclosed herein for measuring sPLA2 levels in serum was utilized to determine the effect of administering certain sPLA2 inhibitors on sPLA2 levels in 84 human subjects. The subjects included 24 subjects with diabetes, 32 subjects with metabolic syndrome, and 75 subjects receiving statin treatment. Subjects were administered the sPLA2 inhibitor A-002, a prodrug form of A-001, twice a day at varying dosages from 50 to 500 mg. The structures of A-002and A-001 are set forth below. At two weeks and four weeks after the first administration, sPLA2 levels were measured and compared to pre-administration baseline levels.
# 84 subjects with stable coronary artery disease were randomized to receive placebo or A-002 via oral administration twice a day over a four week administration period. […]
# [1] = 250 mg, statin subgroup of ITT population
# [2] = 500 mg, diabetes subgroup of ITT population
# [3] = 500 mg, non-diabetes subgroup of ITT population
smiles,measurement,setting,value
"CCc1c(C(=O)C(N)=O)c2c(OCC(=O)OC)cccc2n1Cc1ccccc1 [A-002, [[3-(2-Amino-1,2-dioxoethyl)-2-ethyl-1-(phenylmethyl)-1H-indol-4-yl]oxy]acetic acid methyl ester]","sPLA2 Change from baseline at week 2, Mean",[1],-2.01 ng/mL
same,"sPLA2 Change from baseline at week 2, Median",[1],-1.65 ng/mL
same,"sPLA2 Change from baseline at week 2, Range",[1],-4.20 to -0.20 ng/mL
same,"sPLA2 Change from baseline at week 4, Mean",[1],-2.13 ng/mL
same,"sPLA2 Change from baseline at week 4, Median",[1],-2.15 ng/mL
same,"sPLA2 Change from baseline at week 4, Range",[1],−4.20 to +0.20 ng/ml
same,"sPLA2 level, Baseline, Mean",[1],2.84 ng/mL
same,"sPLA2 level, Baseline, Median",[1],2.40 ng/mL
same,"sPLA2 level, Baseline, Range",[1],1.30 to 5.20 ng/mL
same,"sPLA2 level, Week 2, Mean",[1],0.68 ng/mL
same,"sPLA2 level, Week 2, Median",[1],0.30 ng/mL
same,"sPLA2 level, Week 2, Range",[1],0.05 to 4.40 ng/mL
same,"sPLA2 level, Week 4, Mean",[1],0.57 ng/mL
same,"sPLA2 level, Week 4, Median",[1],0.30 ng/mL
same,"sPLA2 level, Week 4, Range",[1],0.05 to 2.30 ng/mL
same,"sPLA2 Change from baseline at week 2, Mean","500 mg, ITT population",-2.84 ng/mL
same,"sPLA2 Change from baseline at week 2, Median","500 mg, ITT population",-2.95 ng/mL
same,"sPLA2 Change from baseline at week 2, Range","500 mg, ITT population",-4.80 to -0.55 ng/mL
same,"sPLA2 Change from baseline at week 4, Mean","500 mg, ITT population",-2.87 ng/mL
same,"sPLA2 Change from baseline at week 4, Median","500 mg, ITT population",-2.95 ng/mL
same,"sPLA2 Change from baseline at week 4, Range","500 mg, ITT population",-4.80 to -0.55 ng/mL
same,"sPLA2 level, Baseline, Mean","500 mg, ITT population",2.96 ng/mL
same,"sPLA2 level, Baseline, Median","500 mg, ITT population",2.80 ng/mL
same,"sPLA2 level, Baseline, Range","500 mg, ITT population",0.60 to 5.40 ng/mL
same,"sPLA2 level, Week 2, Mean","500 mg, ITT population",0.18 ng/mL
same,"sPLA2 level, Week 2, Median","500 mg, ITT population",0.05 ng/mL
same,"sPLA2 level, Week 2, Range","500 mg, ITT population",0.05 to 0.60 ng/mL
same,"sPLA2 level, Week 4, Mean","500 mg, ITT population",0.15 ng/mL
same,"sPLA2 level, Week 4, Median","500 mg, ITT population",0.05 ng/mL
same,"sPLA2 level, Week 4, Range","500 mg, ITT population",0.05 to 0.60 ng/mL
same,"sPLA2 Change from baseline at week 2, Mean",[2],-3.75 ng/mL
same,"sPLA2 Change from baseline at week 2, Median",[2],-3.50 ng/mL
same,"sPLA2 Change from baseline at week 2, Range",[2],-4.80 to -2.95 ng/mL
same,"sPLA2 Change from baseline at week 4, Mean",[2],-3.82 ng/mL
same,"sPLA2 Change from baseline at week 4, Median",[2],-3.70 ng/mL
same,"sPLA2 Change from baseline at week 4, Range",[2],-4.80 to -2.95 ng/mL
same,"sPLA2 level, Baseline, Mean",[2],3.73 ng/mL
same,"sPLA2 level, Baseline, Median",[2],3.40 ng/mL
same,"sPLA2 level, Baseline, Range",[2],2.70 to 5.40 ng/mL
same,"sPLA2 level, Week 2, Mean",[2],0.32 ng/mL
same,"sPLA2 level, Week 2, Median",[2],0.30 ng/mL
same,"sPLA2 level, Week 2, Range",[2],0.05 to 0.60 ng/mL
same,"sPLA2 level, Week 4, Mean",[2],0.25 ng/mL
same,"sPLA2 level, Week 4, Median",[2],0.10 ng/mL
same,"sPLA2 level, Week 4, Range",[2],0.05 to 0.60 ng/mL
same,"sPLA2 Change from baseline at week 2, Mean",[3],-2.61 ng/mL
same,"sPLA2 Change from baseline at week 2, Median",[3],-2.68 ng/mL
same,"sPLA2 Change from baseline at week 2, Range",[3],-4.40 to -0.55 ng/mL
same,"sPLA2 Change from baseline at week 4, Mean",[3],-2.63 ng/mL
same,"sPLA2 Change from baseline at week 4, Median",[3],-2.53 ng/mL
same,"sPLA2 Change from baseline at week 4, Range",[3],-4.35 to -0.55 ng/mL
same,"sPLA2 level, Baseline, Mean",[3],2.73 ng/mL
same,"sPLA2 level, Baseline, Median",[3],2.70 ng/mL
same,"sPLA2 level, Baseline, Range",[3],0.60 to 4.60 ng/mL
same,"sPLA2 level, Week 2, Mean",[3],0.15 ng/mL
same,"sPLA2 level, Week 2, Median",[3],0.05 ng/mL
